Laboratory results as given in the supplement of paper PMC10949913.
Where “and” joins values, the source holds several entries; their conditions need not be identical. Equal entries are not always repeated.

Key:
Conditions in all cases: 48 h
CU-ACC1 [1] = experiment: area under concentration-response curve (viability) (AUC (a.u.)); higher = less active
In short: (§1)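 Three adrenocortical carcinoma cell lines were exposed for 48 h to library compounds at 11 concentrations in 1,536-well plates, then read by CellTiter-Glo luminescence. Signals were scaled per plate against vehicle and empty-well controls. From fitted concentration-response curves of inhibitory or non-responding classes alone, AC50 and area under the curve were obtained.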

NCI-H295R [2] = experiment: as above
In short: as §1

CU-ACC2 [3] = experiment: as above
In short: as §1

CU-ACC1 [4] = experiment: AC50 viability; higher = less potent
In short: as §1

NCI-H295R [5] = experiment: AC50 viability; higher = less potent
In short: as §1

CU-ACC2 [6] = experiment: AC50 viability; higher = less potent
In short: as §1

| SMILES | area under concentration-response curve (CU-ACC1 [1]) | area under concentration-response curve (NCI-H295R [2]) | area under concentration-response curve (CU-ACC2 [3]) | AC50 viability (CU-ACC1 [4]) | AC50 viability (NCI-H295R [5]) | AC50 viability (CU-ACC2 [6]) |
| --- | --- | --- | --- | --- | --- | --- |
| CCN1CCN(C(=O)Cc2ccc(Nc3ncc(F)c(Nc4ccc(C(=O)Nc5ccccc5Cl)cc4)n3)cc2)CC1 | 412 | 389 | 490 | 9.34 µM | 7.42 µM | 8.33 µM |
| CCCCCCC(C)(C)C1=CC2=C([C@H]3CC(=C/CC3C(C)(C)O2)\CO)C(=C1)O (stereo partly specified) | 442 | 458 | 497 | 5.9 µM | 4.17 µM | 5.9 µM |
| CNCCn1c(=O)c2cc(OC)c(OC)cc2c2cnc3cc4c(cc3c21)OCO4 | 422 | 553 | 537 | 0.0959 µM | 0.152 µM | 0.135 µM |
| CO/C1=C/C(C)=C\[C@@H](C)[C@@H](O)[C@@H](C)C/C(C)=C\C=C/[C@H](OC)[C@@H]([C@@H](C)[C@@H](O)[C@H](C)[C@@]2(O)C[C@@H](O)[C@H](C)[C@@H](C(C)C)O2)OC1=O | 388 | 443 | 365 | 0.0312 µM | 2.48 µM | 0.0393 µM |
| CC1(C)CC\C2=C(/O1)C3=C(C=CC=C3)C(=O)C2=O | 333 | 535 | 515 | 6.61 µM | 33.2 µM | 16.6 µM |
| CC(C)C1=C(O)C=C(O)C(=C1)C/2=N/NC(=O)N2C3=CC4=C(C=C3)[N](C)C=C4 | 322 | 416 | 309 | 0.0934 µM | 0.132 µM | 0.0186 µM |
| C[C@H](NC(=O)/C(C#N)=C/c1cccc(Br)n1)c1ccccc1 | 444 | 442 | 526 | 20.9 µM | 23.5 µM | 23.5 µM |
| CNC(=O)CCc1cc(-c2ccc(-c3ccc(C(F)(F)F)cc3)cc2)n(-c2ccc(N3CCNCC3)cc2)n1 | 432 | 487 | 476 | 4.68 µM | 8.33 µM | 7.42 µM |
| Nc1nc(Nc2ccc([S+](N)(=O)[O-])cc2)nn1C(=O)c1c(F)cccc1F | 443 | 488 | 466 | 11.8 µM | 20.9 µM | 3.32 µM |
| CC(=O)NCC(=O)N1[C@@H]2CC[C@H]1c1ccc(Nc3ncc(C(F)(F)F)c(NC4CCC4)n3)cc12 | 502 | 459 | 443 | 18.6 µM | 16.6 µM | 10.5 µM |
| COc1cc(N2CCC(N)CC2)ccc1Nc1ncc(Cl)c(-c2c[nH]c3ccccc23)n1 | 386 | 318 | 357 | 9.34 µM | 1.18 µM | 5.9 µM |
| c1cc(Nc2cc(C3CC3)n[nH]2)nc(Nc2ccc3nc[nH]c3c2)n1 | 419 | 462 | 408 | 1.05 µM | 7.42 µM | 0.332 µM |
| COc1cccc2c1C(=O)c1c(O)c3c(c(O)c1C2=O)C[C@@](O)(C(=O)CO)C[C@@H]3O[C@H]1C[C@H](N)[C@H](O[C@H]2CCCCO2)[C@H](C)O1 | 230 and 410 | 435 | 168 and 501 | 5.25 µM and 9.34 µM | 20.9 µM | 6.61 µM |
| COc1cc2c(cc1O)CCN[C@]21CS[C@@H]2c3c(OC(C)=O)c(C)c4c(c3[C@H](COC1=O)N1[C@@H]2[C@H]2c3c(cc(C)c(OC)c3O)C[C@@H]([C@@H]1O)N2C)OCO4 | 285 | 315 | 344 | 0.00855 µM | 0.0152 µM | 0.0152 µM |
| CN(C)C/C=C/C(=O)Nc1ccc(C(=O)N2CCC[C@@H](Nc3ncc(Cl)c(-c4c[nH]c5ccccc45)n3)C2)cc1 | 399 | 489 | 358 | 5.25 µM | 14.8 µM | 2.63 µM |
| Cc1cc(Cl)ccc1OCCCC(=O)NO | 442 | 495 | 512 | 20.9 µM | 20.9 µM | 18.6 µM |
| COC1=CC2=C(C=C1CC3=C(F)C(=CC=C3)Cl)C(=O)\C(=C/N2[C@H](CO)C(C)C)C(O)=O | 405 | 509 | 528 | 16.6 µM | 20.9 µM | 14.8 µM |
| COc1cc(Nc2c(C#N)cnc3cc(OCCCN4CCN(C)CC4)c(OC)cc23)c(Cl)cc1Cl | 412 | 430 | 451 | 5.9 µM | 7.42 µM | 8.33 µM |
| Cn1cc(-c2cnn3c(N)c(Br)c([C@@H]4CCCNC4)nc23)cn1 | 483 | 471 | 568 | 20.9 µM | 18.6 µM | 20.9 µM |
| COc1cc(CCc2cc(NC(=O)c3ccc(N4C[C@@H](C)N[C@@H](C)C4)cc3)n[nH]2)cc(OC)c1 | 445 | 477 | 522 | 10.5 µM | 9.34 µM | 11.8 µM |
| CN1CC[C@H]([C@@H](O)C1)C2=C(O)C=C(O)C3=C2O\C(=C/C3=O)C4=CC=CC=C4Cl | 346 | 352 | 392 | 0.833 µM | 1.32 µM | 0.417 µM |
| Nc1cc(C(F)(F)F)c(-c2nc(N3CCOCC3)nc(N3CCOCC3)n2)cn1 | 381 | 441 | 413 | 5.25 µM | 3.72 µM | 16.6 µM |
| CC(=O)c1ccc2c(c1)c1cc(C(C)=O)ccc1n2CCNC(C)C | 405 | 421 | 415 | 2.09 µM | 2.35 µM | 2.95 µM |
| COC(=O)N[C@H](C(=O)N1CCC[C@H]1c1ncc(-c2ccc(-c3ccc(-c4cnc([C@@H]5CCCN5C(=O)[C@@H](NC(=O)OC)C(C)C)[nH]4)cc3)cc2)[nH]1)C(C)C | 506 | 508 | 561 | 18.6 µM | 23.5 µM | 23.5 µM |
| CCN1CCN(Cc2ccc(-c3cc4c(N[C@H](C)c5ccccc5)ncnc4[nH]3)cc2)CC1 | 452 | 492 | 534 | 23.5 µM | 18.6 µM | 23.5 µM |
| CN[S+](=O)([O-])c1ccc2c(c1)/C(=C/c1[nH]c3c(c1CCCN1CCN(C)CC1)CCCC3)C(=O)N2 | 440 | 458 | 504 | 23.5 µM | 16.6 µM | 16.6 µM |

| SMILES | area under concentration-response curve (CU-ACC1 [1]) | area under concentration-response curve (NCI-H295R [2]) | area under concentration-response curve (CU-ACC2 [3]) | AC50 viability (CU-ACC1 [4]) | AC50 viability (NCI-H295R [5]) | AC50 viability (CU-ACC2 [6]) |
| --- | --- | --- | --- | --- | --- | --- |
| Fc1ccc2[nH]ccc2c1-c1nc(N2CCOCC2)c2sc(CN3CCN(CC4CC4)CC3)cc2n1 | 482 | 487 | 462 | 18.6 µM | 20.9 µM | 26.3 µM |
| C[N]1C=C(C=N1)C2=CC=C3N=CC\4=C(N(C(=O)\C=C4)C5=CC6=C(CCN6C(=O)C=C)C=C5)C3=C2 | 349 | 399 | 433 | 0.407 µM | 0.723 µM | 0.723 µM |
| COc1ccc(CCN(C)CCCOc2ccc([S+](=O)([O-])c3c(C(C)C)c4ccccc4n3C)cc2)cc1OC | 448 | 427 | 565 | 10.5 µM | 13.2 µM | 20.9 µM |
| CNC(=O)c1cc(Oc2ccc(NC(=O)Nc3ccc(Cl)c(C(F)(F)F)c3)cc2)ccn1 | 518 | 539 | 521 | 18.6 µM | 18.6 µM | 23.5 µM |
| CC[C@H](CC#N)OC(=O)N[C@@H](C)c1cccc(NC(=O)Nc2ccc(-c3cnco3)c(OC)c2)c1 | 456 | 489 | 530 | 5.9 µM | 2.09 µM | 5.9 µM |
| Nc1cc(C(F)(F)F)c(-c2cc(N3CCOCC3)nc(N3CCOCC3)n2)cn1 | 400 | 449 | 539 | 9.34 µM | 2.63 µM | 4.68 µM |
| COc1ccc([S+](=O)([O-])N(CCO)c2ccccc2CN(C)C/C=C/c2ccc(Cl)cc2)cc1 | 436 | 425 | 539 | 14.8 µM | 20.9 µM | 23.5 µM |
| Cc1cc(Nc2cc(N3CCN(C)CC3)nc(/C=C/c3ccccc3)n2)n[nH]1 | 401 | 414 | 369 | 11.8 µM | 6.61 µM | 13.2 µM |
| Cc1nn(Cc2ccccc2Cl)c(C)c1CN(C)CC(O)COc1ccc(Cl)cc1 (stereo unspecified) | 418 | 482 | 507 | 8.33 µM | 8.33 µM | 7.42 µM |
| NC[C@@](O)(c1ccc(Cl)cc1)c1ccc(-c2cn[nH]c2)cc1 | 463 | 485 | 529 | 7.42 µM | 8.33 µM | 14.8 µM |
| O=C(Nc1ncc(SCCN2CCCC2)s1)[C@]1(c2ccc([S+](=O)([O-])C3CC3)cc2)C[C@H]1C1CCCCC1 | 442 | 437 | 507 | 13.2 µM | 10.5 µM | 26.3 µM |
| Cc1cc2cc(Oc3ccnc(Nc4cccc(C[S+](=O)([O-])NCCN(C)C)c4)n3)ccc2[nH]1 | 493 | 468 | 480 | 20.9 µM | 23.5 µM | 23.5 µM |
| CO[C@H]1CCC(O[C@H]2C[C@H]([C@]3(C)CC[C@]4(C[C@H](O)[C@@H](C)[C@@H]([C@@H](C)/C=C(\C)C(=O)[C@H](C)C[C@H](C)C(=O)[O-])O4)O3)O[C@]3(O[C@@H]([C@H]4O[C@@](O)(CO)[C@H](C)C[C@@H]4C)C[C@@H]3C)[C@@H]2C)O[C@@H]1C (stereo partly specified) | 400 | 440 | 392 | 1.48 µM | 2.63 µM | 2.35 µM |
| CN(c1ncccc1CNc1nc(Nc2ccc3c(c2)CC(=O)N3)ncc1C(F)(F)F)[S+](C)(=O)[O-] | 404 | 430 | 422 | 13.2 µM | 14.8 µM | 6.61 µM |
| O=[N+]([O-])c1ccc(Nc2ccccc2-c2ccccc2)c2nonc12 | 426 | 434 | 467 | 9.34 µM | 8.33 µM | 8.33 µM |
| CC(C)N1N/C(=C2\C=c3cc(O)ccc3=N2)c2c(N)ncnc21 | 401 | 472 | 520 | 1.66 µM | 2.09 µM | 2.63 µM |
| Nc1ccc(C(=O)c2cc3c(ccc4ccccc43)[nH]2)cc1 | 466 | 419 | 471 | 6.05 µM | 12.1 µM | 38.2 µM |
| CO[C@H]1/C=C\C=C(\C)C(=O)NC2=CC(=O)C(NCCN(C)C)=C(C[C@@H](C)C[C@H](OC)[C@H](O)[C@@H](C)/C=C(/C)[C@@H]1OC(N)=O)C2=O | 335 | 451 | 460 | 1.66 µM | 3.72 µM | 0.833 µM |
| COc1cc2c(NC3CCN(CC4CCCCC4)CC3)nc(N3CCCN(C(C)C)CC3)nc2cc1OCCCN1CCCCC1 | 426 | 449 | 485 | 20.9 µM | 16.6 µM | 10.5 µM |
| CCN(CC)Cc1ccc2cc(COC(=O)Nc3ccc(C(=O)NO)cc3)ccc2c1 | 365 | 382 | 390 | 3.72 µM | 9.34 µM | 4.68 µM |
| NC1(Cc2ccc(Cl)cc2)CCN(c2ncnc3[nH]ccc23)CC1 | 444 | 461 | 540 | 16.6 µM | 14.8 µM | 18.6 µM |
| Nc1ncccc1-c1nc2ccc(-c3ccccc3)nc2n1-c1ccc(C2(N)CCC2)cc1 | 354 | 408 | 437 | 8.33 µM | 5.9 µM | 16.6 µM |
| c1ccc(Cn2c(-c3ccc(OCC(C4CCNCC4)n4c(-c5ccccc5)nc5ccccc54)cc3)nc3ccccc32)cc1 (stereo unspecified) | 387 | 363 | 391 | 11.8 µM | 9.34 µM | 11.8 µM |
| Oc1c(Cl)cc(Cl)c2cccnc12 | 417 | 404 | 426 | 20.9 µM | 16.6 µM | 14.8 µM |
| CC[S+](=O)([O-])N1CCN(c2ccc(Nc3ncc(C(N)=O)c(NC4CC4)n3)cc2)CC1 | 474 | 499 | 561 | 20.9 µM | 16.6 µM | 26.3 µM |
